This assay relates to EBTr [NBL-4] cell derived from bovine embryonic trachea. The experiment in a line: Measurement of cAMP production promoting action in EBTr [NBL-4] cell. The format is cell-based. To be noted: 1 × 10^−9 M concentration of compound added; EBTr [NBL-4] cells, 15 minutes with 0.5 mM 3-isobutyl-1-methylxanthine; cAMP EIA. As to the method:
Measurement of cAMP production promoting action in EBTr [NBL-4] cell derived from bovine embryonic trachea
According to the method of Ito et al. in Br. J. Pharmacol., vol. 99, page 13 (1990), the following test was carried out.
That is, EBTr [NBL-4] cells derived from bovine embryonic trachea (produced by Dainippon Pharmaceutical Co.) were inoculated on 24-well plates (6×10^4 cells/well) (manufactured by Sumitomo Bakelite Co.), and cultured on a growth medium (MEM Earle's medium including 10% calf serum, 2 mM glutamine and non-essential amino acids) for 48 hours, followed by cultivation on 0.5 ml of a growth medium including the test compound and 0.5 mM 3-isobutyl-1-methylxanthine for 15 minutes. After the completion of the reaction, the cells were washed with a phosphate buffer (not including Ca^++ and Mg^++), 0.6 ml of 65% aqueous ethanol solution was added, followed by allowing to stand at 4° C. for an hour, and the resulting cAMP was extracted. After evaporation of the solvent by a centrifugal evaporator, the amount of cAMP was measured by using a cAMP EIA System (manufactured by Amersham Co.).
(In general: Changes in cAMP serve as a functional read-out for many G protein-coupled receptors.)

Molecules are shown by their SMILES.

As to `O=C(O)c1ccc(CCCC2C(Cl)CC(O)C2C#CC(O)C2CCCCC2)cc1` (stereo not drawn) [Compound 35, 9-Deoxy-9β-chloro-2,3,4,16,17,18,19,20-octanor-1,5-inter-p-phenylene-15-cyclohexyl-13,14-didehydro-PGF1α], the “cAMP production promoting action (percent to PGD2)” value is 150 percent to PGD2.

Values taken from patent publication US6822112B1, “Prostaglandin derivatives” (Taisho Pharmaceutical Co., Ltd., priority 1999, dated 2004).
